≈ marks a conversion by molar mass, not a printed value. Entries after “also recorded” stand apart in the source; their conditions may differ. Read-outs that look alike come from different tables or passages of the source. Where a SMILES comes first, the peptide text is derived from it.
Key:
Gram-negative bacteria = assay: MIC against Gram-negative bacteria (V681 analog studies); format: cell-based
Experimental: Minimal inhibitory concentrations (MICs) are determined using a standard microtiter dilution method, with 3 sets of determinations, in LB (Luria-Bertani) no-salt medium (10 g of tryptone and 5 g of yeast extract per liter). In some cases, Mueller Hinton (MH) medium or Brain Heart Infusion (BHI) medium is used.
Briefly, cells were grown overnight at 37° C. in LB and diluted in the same medium. Serial dilutions of the peptides are added to the microtiter plates in a volume of 100 μl followed by 10 μl of bacteria to give a final inoculum of 5×10^5 colony-forming units/ml. Plates are incubated at 37° C. for 24 hours and MICs determined as the lowest peptide concentration that inhibited growth. Alternatively, minimal inhibitory concentrations are determined using a standard microtiter dilution method in a Mueller-Hinton (MH) medium. Briefly, cells are grown overnight at 37° C. in MH broth and diluted in the same medium. In some cases, serial dilutions of the peptides are added to the microtiter plates in a volume of 100 μl followed by 10 μl of bacteria to give a final inoculum of 1×10^5 colony-forming units/ml. Plates are incubated at 37° C. for 24 hours and MICs are determined as the lowest peptide concentration that inhibited growth.

human erythrocytes [1] = assay: Hemolytic activity against human erythrocytes (HC50 / MHC, microtiter dilution); format: cell-based
Experimental: Hemoglobin release was determined spectrophotometrically at 570 nm. The hemolytic activity was determined as the peptide concentration that caused 50% hemolysis of erythrocytes after 18 h (HC50). […] HC50 was determined by a plot of peptide concentration versus percent lysis.

[2] = RP-HPLC temperature profiling (peptide self-association parameter PA); format: physicochemical; conditions: enantiomer pairs of V681 analogs, 5° C. to 80° C., relative to peptide C
Procedure, shortened: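 Peptide retention was profiled by RP-HPLC at pH 2 from 5 °C to 80 °C in 3 °C increments, using a linear gradient of 0.5% acetonitrile/min. The monomeric random-coil control peptide C profile was subtracted. PA is the maximum change in retention time relative to control C; higher PA means greater self-association.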

human erythrocytes [3] = assay: Hemolytic activity against human erythrocytes (HC50 / MHC, microtiter dilution); format: cell-based; conditions: V681 analog studies
[4] = RP-HPLC retention as measure of overall peptide hydrophobicity; format: physicochemical; conditions: 80° C.
Experimental: Crude and purified peptides were analyzed on an Agilent 1100 series liquid chromatograph (Little Falls, Del.). Runs were performed on a Zorbax 300 SB-C8 column (150×2.1 mm I.D.; 5 μm particle size, 300 Å pore size) from Agilent Technologies using linear AB gradient (1% acetonitrile/min) and a flow rate of 0.25 ml/min, where eluant A was 0.2% aqueous TFA, pH 2 and eluant B was 0.2% TFA in acetonitrile.

[5] = Circular dichroism spectroscopy (helical structure); format: physicochemical
[6] = 50% TFE in 0.05% TFA; cited from earlier work
human erythrocytes [7] = conditions: WO 2006/065977, cited from earlier work

CC[C@H](C)[C@H](NC(=O)[C@H](C)NC(=O)[C@H](CCCCN)NC(=O)[C@H](CC(C)C)NC(=O)[C@H](C)NC(=O)[C@@H](NC(=O)[C@H](Cc1cnc[nH]1)NC(=O)[C@H](CC(C)C)NC(=O)[C@@H](NC(=O)[C@@H](NC(=O)[C@H](CCCCN)NC(=O)[C@H](CCCCN)NC(=O)[C@H](C)NC(=O)[C@H](CO)NC(=O)[C@H](CCCCN)NC(=O)[C@H](Cc1ccccc1)NC(=O)[C@@H](NC(=O)[C@H](CCCCN)NC(=O)[C@H](CC(C)C)NC(=O)[C@H](Cc1ccccc1)NC(=O)[C@H](CO)NC(=O)[C@H](CCCCN)NC(=O)[C@H](Cc1c[nH]c2ccccc12)NC(=O)[C@H](CCCCN)NC(C)=O)[C@@H](C)O)[C@@H](C)O)C(C)C)[C@@H](C)O)C(=O)N[C@@H](CO)C(=O)N[C@@H](CO)C(N)=O [NKL]
MIC against Gram-negative bacteria (Gram-negative bacteria): 3.1 µg/mL (≈ 1.04 µM) | Fold decrease in hemolytic activity compared to V681 (human erythrocytes [1]): > 32 fold | PA (peptide self-association parameter) [2]: 2.1 | Hemolytic activity, minimal hemolytic concentration (MHC) (human erythrocytes [3]): undetectable level; also recorded: non-hemolytic; also recorded: no detectable hemolytic activity; also recorded: no measurable activity | Change in hydrophobicity (retention time) relative to NVL (V681) ([4]; non-polar face substitution): -12.61 min

CC[C@H](C)[C@H](NC(=O)[C@H](C)NC(=O)[C@H](CCCCN)NC(=O)[C@H](CC(C)C)NC(=O)[C@H](C)NC(=O)[C@@H](NC(=O)[C@H](Cc1c[nH]cn1)NC(=O)[C@H](CC(C)C)NC(=O)[C@@H](NC(=O)[C@@H](NC(=O)[C@H](CCCCN)NC(=O)[C@@H](NC(=O)[C@H](C)NC(=O)[C@H](CO)NC(=O)[C@H](CCCCN)NC(=O)[C@H](Cc1ccccc1)NC(=O)[C@@H](NC(=O)[C@H](CCCCN)NC(=O)[C@H](CC(C)C)NC(=O)[C@H](Cc1ccccc1)NC(=O)[C@H](CO)NC(=O)[C@H](CCCCN)NC(=O)[C@H](Cc1c[nH]c2ccccc12)NC(=O)[C@H](CCCCN)NC(C)=O)[C@@H](C)O)C(C)C)[C@@H](C)O)C(C)C)[C@@H](C)O)C(=O)N[C@@H](CO)C(=O)N[C@@H](CO)C(N)=O [Peptide V681] (Ac-KWKSFLKTFKSAVKTVLHTALKAISS-NH2)
PA (peptide self-association parameter) [2]: 7.2 | Hemolytic activity, minimal hemolytic concentration (MHC) (human erythrocytes [3]): 15.6 µg/mL | Change in hydrophobicity (retention time) relative to PVL ([4]; polar face substitution): -0.35 min | [θ]222 molar ellipticity ([5]; 50% TFE): −27,300 | α-helical content ([5]; 50% TFE): 94% | α-helical content ([5]; benign conditions): 45% | [θ]222 molar ellipticity ([5]; benign conditions (100 mM KCl, 50 mM aq. PO4, pH 7)): −12,900 | Transition temperature Tm (50% of α-helical structure denatured) [6]: 79.3 °C

CC[C@H](C)[C@H](NC(=O)[C@H](C)NC(=O)[C@H](CCCCN)NC(=O)[C@H](CC(C)C)NC(=O)[C@H](C)NC(=O)[C@@H](NC(=O)[C@H](Cc1c[nH]cn1)NC(=O)[C@H](CC(C)C)NC(=O)[C@@H](NC(=O)[C@@H](NC(=O)[C@H](CCCCN)NC(=O)[C@@H](C)NC(=O)[C@H](C)NC(=O)[C@H](CO)NC(=O)[C@H](CCCCN)NC(=O)[C@H](Cc1ccccc1)NC(=O)[C@@H](NC(=O)[C@H](CCCCN)NC(=O)[C@H](CC(C)C)NC(=O)[C@H](Cc1ccccc1)NC(=O)[C@H](CO)NC(=O)[C@H](CCCCN)NC(=O)[C@H](Cc1c[nH]c2ccccc12)NC(=O)[C@H](CCCCN)NC(C)=O)[C@@H](C)O)[C@@H](C)O)C(C)C)[C@@H](C)O)C(=O)N[C@@H](CO)C(=O)N[C@@H](CO)C(N)=O [NAD] (HELM PEPTIDE1{[ac].K.W.K.S.F.L.K.T.F.K.S.A.[dA].K.T.V.L.H.T.A.L.K.A.I.S.S.[am]}$$$$V2.0)
PA (peptide self-association parameter) [2]: 4.1 | Hemolytic activity (human erythrocytes [7]; after 12 hours): 250 µg/mL | Hemolytic activity (human erythrocytes [7]; after 18 hours): 31.3 µg/mL
